According to US20060110333A1 (priority 2002, published 2006):

Assay: Plasma buprenorphine concentration after single administration (LC-MS/MS)
Details: 0.1 mg/kg in terms of buprenorphine, cynomolgus monkey

## CO[C@@]12CC[C@@]3(C[C@@H]1[C@](C)(O)C(C)(C)C)[C@H]1Cc4ccc(O)c5c4[C@@]3(CCN1CC1CC1)[C@H]2O5.Cl [Comparative Example 2, buprenorphine hydrochloride]
0 min, mean ± SD, intravenous
  Plasma buprenorphine concentration: 0 ng/mL
10 min, Animal 1, intravenous
  Plasma buprenorphine concentration: 41.40 ng/mL
10 min, Animal 2, intravenous
  Plasma buprenorphine concentration: 32.16 ng/mL
10 min, Animal 3, intravenous
  Plasma buprenorphine concentration: 41.33 ng/mL
10 min, mean ± SD, intravenous
  Plasma buprenorphine concentration: 38.30 ± 5.31 ng/mL
30 min, Animal 1, intravenous
  Plasma buprenorphine concentration: 32.83 ng/mL
30 min, Animal 2, intravenous
  Plasma buprenorphine concentration: 18.02 ng/mL
30 min, Animal 3, intravenous
  Plasma buprenorphine concentration: 33.53 ng/mL
30 min, mean ± SD, intravenous
  Plasma buprenorphine concentration: 28.12 ± 8.76 ng/mL
60 min, Animal 1, intravenous
  Plasma buprenorphine concentration: 16.85 ng/mL
60 min, Animal 2, intravenous
  Plasma buprenorphine concentration: 16.45 ng/mL
60 min, Animal 3, intravenous
  Plasma buprenorphine concentration: 26.51 ng/mL
60 min, mean ± SD, intravenous
  Plasma buprenorphine concentration: 19.94 ± 5.70 ng/mL
120 min, Animal 1, intravenous
  Plasma buprenorphine concentration: 8.27 ng/mL
120 min, Animal 2, intravenous
  Plasma buprenorphine concentration: 9.34 ng/mL
120 min, Animal 3, intravenous
  Plasma buprenorphine concentration: 16.13 ng/mL
120 min, mean ± SD, intravenous
  Plasma buprenorphine concentration: 11.25 ± 4.26 ng/mL
240 min, Animal 1, intravenous
  Plasma buprenorphine concentration: 3.78 ng/mL
240 min, Animal 2, intravenous
  Plasma buprenorphine concentration: 4.55 ng/mL
240 min, Animal 3, intravenous
  Plasma buprenorphine concentration: 7.05 ng/mL
240 min, mean ± SD, intravenous
  Plasma buprenorphine concentration: 5.13 ± 1.71 ng/mL
480 min, Animal 1, intravenous
  Plasma buprenorphine concentration: 1.46 ng/mL
480 min, Animal 2, intravenous
  Plasma buprenorphine concentration: 0.97 ng/mL
480 min, Animal 3, intravenous
  Plasma buprenorphine concentration: 2.00 ng/mL
480 min, mean ± SD, intravenous
  Plasma buprenorphine concentration: 1.48 ± 0.52 ng/mL
